Test results from PubChem BioAssay (NCI).
Where “and” joins values, the source holds several entries; their conditions need not be identical. Identical values can stand only once.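 Where inhibition never reached the appropriate level, the endpoint shown equals the highest concentration tested. Otherwise, values were interpolated linearly from a five-concentration, 48-hour dose response in 96-well plates. TGI marks complete inhibition of growth.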

Experiments:
Experiment in all cases: NCI anticancer screen, dose series, 48 h
HOP-18 NSCLC = test system: HOP-18 NSCLC
KM20L2 colon = test system: KM20L2 colon
LXFL 529 NSCLC = test system: LXFL 529 NSCLC
DMS 114 small cell lung = test system: DMS 114 small cell lung
XF 498 CNS = test system: XF 498 CNS

Row | SMILES | TGI (HOP-18 NSCLC) [µM] | TGI (KM20L2 colon) | TGI (LXFL 529 NSCLC) [µM] | TGI (DMS 114 small cell lung) [µM] | TGI (XF 498 CNS) [µM]
1 | C/C=C(/CCC1NCCc2c1[nH]c1ccccc21)[Si](C)(C)C (stereo not given) | 24.2 | > 100 µM and 11.8 µM | 3.25 |  | 
2 | C=CCN1C(=O)NC(=O)/C(=C/c2c3ccccc3cc3ccccc23)C1=O |  |  |  | 45.2 | 40.7
